One experiment relates to Hela. As to the kind of experiment: MTT antiproliferative assay, Hela. Format: cell-based, human. Particulars: 48 h, MTT; for inhibition at 100 µM: read-out: % Growth Inhibition at 100 μM Hela. As for the experimental part: (§1) The antiproliferative activity of the title compounds against the panel of six different human cancer cell lines, viz. lung (A549), cervix (HeLa), liver (HepG-2), liver (BEL7402), colorectal (HCT116), and breast (MCF-7) cell lines, was evaluated using a standard MTT-based colorimetric assay. All cell lines were obtained from the Key Laboratory of Natural Resources and Functional Molecules of the Changbai Mountain (Yanbian University) and maintained in Dulbecco’s modified Eagle’s medium (DMEM) and RPMI Media 1640 (RPMI1640), supplemented with 10% foetal bovine serum (FBS) at 37 °C in a humidified atmosphere containing 5% CO2.
(§2) Cells were plated in 96-well plates at appropriate densities to ensure exponential growth throughout the experimental period (9 × 10^3 cells per well), and then allowed to adhere for 24 h. Cells were then treated for 48 h with each compound. After 48 h of incubation, 10 μL of MTT solution were added to each well to a final concentration of 2 mg·mL^−1. Plates were then incubated for a further 4 h. After incubation, the MTT solution was removed and 150 μL of DMSO were added to each well for coloration. The plates were shaken vigorously for 10 min at room temperature to ensure complete solubilisation. The optometric density (OD) was read on a microplate reader (EL × 800, BioTek, Highland Park, Winooski, VT, USA) at 492 nm, and the data were subsequently analysed. The percentage of cell growth inhibition was calculated from the following equation:Inhibitory rate (%) = [1 − (ODtreated − ODblank)/(ODcontrol − ODblank)] × 100.
(§3) To obtain the antiproliferative activity of compounds 2a–2w, the compounds were selected in the same way with four serial concentrations (1, 10, 50 and 100 μM) of those compounds. The optometric density (OD) reading was then used to calculate the IC50.

For a further experiment, the system named is MCF-7. Put plainly: MTT antiproliferative assay, MCF-7. In kind it is cell-based, human. The following applies: 48 h, MTT; for inhibition at 100 µM: read-out: % Growth Inhibition at 100 μM MCF-7. As to the method: as §1, §2, §3
In general terms: Tetrazolium dyes change colour on reduction, which living cells bring about.

Experiment [1] deals with human normal liver (L02) cells. As to the kind of experiment: MTT assay on normal cell line L02. Format: cell-based. The following applies: 48 h, MTT; for % Growth Inhibition at 100 μM L02 / inhibition at 100 µM: normal cells; for IC50: normal cell line; for inhibition at 100 µM: read-out: % Growth Inhibition at 100 μM L02.
The test system of the next experiment is HCT116. As to the kind of experiment: MTT antiproliferative assay, HCT116. In kind it is cell-based, human. Particulars: 48 h, MTT; for inhibition at 100 µM: read-out: % Growth Inhibition at 100 μM HCT116. As for the experimental part: as §1, §2, §3
For the next experiment, the system named is BEL7402. As to the kind of experiment: MTT antiproliferative assay, BEL7402. Format: cell-based, human. Particulars: 48 h, MTT; for inhibition at 100 µM: read-out: % Growth Inhibition at 100 μM BEL7402. As to the method: as §1, §2, §3
The test system of a further experiment is HepG-2. Put plainly: MTT antiproliferative assay, HepG-2. In kind it is cell-based, human. Particulars: 48 h, MTT; for inhibition at 100 µM: read-out: % Growth Inhibition at 100 μM HepG-2. As to the method: as §1, §2, §3
A further experiment deals with A549. Put plainly: MTT antiproliferative assay, A549. In kind it is cell-based, human. Particulars: 48 h, MTT; for inhibition at 100 µM: read-out: % Growth Inhibition at 100 μM A549. As for the experimental part:
as §1, §2, §3

One may read the IC50 as the midpoint of a concentration-inhibition curve. Turning to `CC12CCC3C(CC=C4CC(O)CCC43C)C1C/C(=C\c1cn(-c3ccc(Cl)c(Cl)c3)nn1)C2=O` (centres unmarked) [Compound 2h, (E)-16-((1-(3,4-dichlorophenyl)-1H-1,2,3-triazol-4-yl)methylene)-3-hydroxy-10,13-dimethyl-1,3,4,7,8,9,10,11,12,13,15,16-dodecahydro-2H-cyclopenta[a]phenan-thren-17(14H)-one], in the experiment on Hela, the “% Growth Inhibition at 100 μM Hela” value was 68.7% and the IC50 turned out to be 15.1 µM. In the experiment on MCF-7, the “% Growth Inhibition at 100 μM MCF-7” value is reported as 80.0% and it took 14.9 µM to reach half-maximal inhibition (IC50). Also, in experiment [1], the “% Growth Inhibition at 100 μM L02” value turned out to be 67.9% and the IC50 is 26.4 µM. Besides, in the experiment on HCT116, the “% Growth Inhibition at 100 μM HCT116” value stood at 74.4% and the IC50 is 11.9 µM. In addition, in the experiment with BEL7402, the “% Growth Inhibition at 100 μM BEL7402” value is listed as 70.1% and the IC50 is 16 µM. Also, in the experiment on HepG-2, the “% Growth Inhibition at 100 μM HepG-2” value is recorded as 48.2% and the IC50 is over 100 µM. For the same compound, in the experiment with A549, the “% Growth Inhibition at 100 μM A549” value is listed as 70.7% and half-maximal inhibition (IC50) was put at 17.5 µM.

On to `CC12CCC3C(CC=C4CC(O)CCC43C)C1C/C(=C\c1cn(-c3ccccc3Br)nn1)C2=O` (centres unmarked) [Compound 2i, (E)-16-((1-(2-bromophenyl)-1H-1,2,3-triazol-4-yl)methylene)-3-hydroxy-10,13-dimethyl-1,3,4,7,8,9,10,11,12,13,15,16-dodecahydro-2H-cyclopenta[a]phenan-thren-17(14H)-one], for which the “% Growth Inhibition at 100 μM Hela” value in the experiment on Hela is reported as 17.0%. The “% Growth Inhibition at 100 μM MCF-7” value with MCF-7 is “NA (NA: antiproliferative activity <5%)”. Besides, the “% Growth Inhibition at 100 μM L02” value in experiment [1] is on record as “NA (NA: antiproliferative activity <5%)”. The “% Growth Inhibition at 100 μM HCT116” value in the experiment with HCT116 was 20.2%. In the experiment with BEL7402, the “% Growth Inhibition at 100 μM BEL7402” value is “NA (NA: antiproliferative activity <5%)”. Also, the “% Growth Inhibition at 100 μM HepG-2” value in the experiment with HepG-2 is “NA (NA: antiproliferative activity <5%)”. Also, the “% Growth Inhibition at 100 μM A549” value in the experiment with A549 was “NA (NA: antiproliferative activity <5%)”.

Regarding `CC12CCC3C(CC=C4CC(O)CCC43C)C1C/C(=C\c1cn(-c3cccc(Br)c3)nn1)C2=O` (centres unmarked) [Compound 2j, (E)-16-((1-(3-bromophenyl)-1H-1,2,3-triazol-4-yl)methylene)-3-hydroxy-10,13-dimethyl-1,3,4,7,8,9,10,11,12,13,15,16-dodecahydro-2H-cyclopenta[a]phenan-thren-17(14H)-one], in the experiment on Hela, the “% Growth Inhibition at 100 μM Hela” value amounted to 20.5%. For the same compound, the “% Growth Inhibition at 100 μM MCF-7” value with MCF-7 stood at 42.1%. Also, in experiment [1], the “% Growth Inhibition at 100 μM L02” value is 43.8%. In addition, in the experiment with HCT116, the “% Growth Inhibition at 100 μM HCT116” value was determined as 42.0%. In addition, the “% Growth Inhibition at 100 μM BEL7402” value in the experiment with BEL7402 is on record as 37.6%. The “% Growth Inhibition at 100 μM HepG-2” value in the experiment with HepG-2 stood at 10.8%. For the same compound, the “% Growth Inhibition at 100 μM A549” value with A549 is recorded as “NA (NA: antiproliferative activity <5%)”.

As for `CC12CCC3C(CC=C4CC(O)CCC43C)C1C/C(=C\c1cn(-c3ccc(Br)cc3)nn1)C2=O` (centres unmarked) [Compound 2k, (E)-16-((1-(4-bromophenyl)-1H-1,2,3-triazol-4-yl)methylene)-3-hydroxy-10,13-di-methyl-1,3,4,7,8,9,10,11,12,13,15,16-dodecahydro-2H-cyclopenta[a]phenan-thren-17(14H)-one], in the experiment on Hela, the “% Growth Inhibition at 100 μM Hela” value came to 30.7% and the IC50 is over 100 µM. In the experiment with MCF-7, the “% Growth Inhibition at 100 μM MCF-7” value was found to be 45.5% and the IC50 was over 100 µM. Further, in experiment [1], the “% Growth Inhibition at 100 μM L02” value is recorded as 11.1% and the IC50 was over 100 µM. For the same compound, in the experiment on HCT116, the “% Growth Inhibition at 100 μM HCT116” value was “NA (NA: antiproliferative activity <5%)” and the half-inhibitory concentration (IC50) is over 100 µM. In the experiment with BEL7402, the “% Growth Inhibition at 100 μM BEL7402” value is “NA (NA: antiproliferative activity <5%)” and the IC50 is over 100 µM. In the experiment on HepG-2, the “% Growth Inhibition at 100 μM HepG-2” value was found to be 66.4% and the IC50 came out at 37.1 µM. Further, in the experiment with A549, the “% Growth Inhibition at 100 μM A549” value came out at 47.8% and the IC50 is over 100 µM.

Take `CC12CCC3C(CC=C4CC(O)CCC43C)C1C/C(=C\c1cn(-c3ccccc3I)nn1)C2=O` (centres unmarked) [Compound 2l, (E)-3-hydroxy-16-((1-(2-iodophenyl)-1H-1,2,3-triazol-4-yl)methylene)-10,13-dim-ethyl-1,3,4,7,8,9,10,11,12,13,15,16-dodecahydro-2H-cyclopenta[a]phenanthren-17(14H)-one]: in the experiment with Hela, the “% Growth Inhibition at 100 μM Hela” value is given as “NA (NA: antiproliferative activity <5%)”. For the same compound, the “% Growth Inhibition at 100 μM MCF-7” value in the experiment with MCF-7 was “NA (NA: antiproliferative activity <5%)”. In experiment [1], the “% Growth Inhibition at 100 μM L02” value is “NA (NA: antiproliferative activity <5%)”. Also, the “% Growth Inhibition at 100 μM HCT116” value with HCT116 was “NA (NA: antiproliferative activity <5%)”. For the same compound, the “% Growth Inhibition at 100 μM BEL7402” value in the experiment with BEL7402 was “NA (NA: antiproliferative activity <5%)”. The “% Growth Inhibition at 100 μM HepG-2” value in the experiment on HepG-2 was “NA (NA: antiproliferative activity <5%)”. The “% Growth Inhibition at 100 μM A549” value in the experiment with A549 is listed as “NA (NA: antiproliferative activity <5%)”.

Consider `CC12CCC3C(CC=C4CC(O)CCC43C)C1C/C(=C\c1cn(-c3cccc(I)c3)nn1)C2=O` (centres unmarked) [Compound 2m, (E)-3-hydroxy-16-((1-(3-iodophenyl)-1H-1,2,3-triazol-4-yl)methylene)-10,13-dim-ethyl-1,3,4,7,8,9,10,11,12,13,15,16-dodecahydro-2H-cyclopenta[a]phenanthren-17(14H)-one], for which the “% Growth Inhibition at 100 μM Hela” value with Hela was “NA (NA: antiproliferative activity <5%)”. Moreover, the “% Growth Inhibition at 100 μM MCF-7” value in the experiment with MCF-7 is reported as “NA (NA: antiproliferative activity <5%)”. In experiment [1], the “% Growth Inhibition at 100 μM L02” value is listed as “NA (NA: antiproliferative activity <5%)”. Besides, the “% Growth Inhibition at 100 μM HCT116” value in the experiment on HCT116 stood at 7.6%. Further, the “% Growth Inhibition at 100 μM BEL7402” value in the experiment with BEL7402 turned out to be 14.1%. Besides, the “% Growth Inhibition at 100 μM HepG-2” value with HepG-2 is reported as “NA (NA: antiproliferative activity <5%)”. Moreover, the “% Growth Inhibition at 100 μM A549” value in the experiment on A549 is reported as “NA (NA: antiproliferative activity <5%)”.

The term inhibition denotes the change of the read-out against control, counted positive when it falls. With `Cc1cccc(-n2cc(/C=C3\CC4C5CC=C6CC(O)CCC6(C)C5CCC4(C)C3=O)nn2)c1` (centres unmarked) [Compound 2o, (E)-3-hydroxy-10,13-dimethyl-16-((1-m-tolyl-1H-1,2,3-triazol-4-yl)methylene)-1,3,4,7,8,9,10,11,12,13,15,16-dodecahydro-2H-cyclopenta[a]phenanthren-17(14H)-one], the inhibition at 100 µM in the experiment with Hela (Homo sapiens) was 12.7%; with MCF-7 (Homo sapiens, MCF7), 11.2%; in experiment [1] (Homo sapiens, L02), 40.1%; with HCT116 (Homo sapiens, HCT-116), 40.9%; in the experiment with BEL7402 (Homo sapiens, Bel-7402), 30.5%; in the experiment with HepG-2 (Homo sapiens, HepG2), 12.8%. Also, the inhibition at 100 µM in the experiment with A549 (Homo sapiens, A549) is under 5%.

For `Cc1ccc(-n2cc(/C=C3\CC4C5CC=C6CC(O)CCC6(C)C5CCC4(C)C3=O)nn2)cc1` (centres unmarked) [Compound 2p, (E)-3-hydroxy-10,13-dimethyl-16-((1-p-tolyl-1H-1,2,3-triazol-4-yl)methylene)-1,3,4,7,8,9,10,11,12,13,15,16-dodecahydro-2H-cyclopenta[a]phenanthren-17(14H)-one], the IC50 is 62.4 µM with Hela (Homo sapiens, HeLa); over 100 µM in the experiment with MCF-7 (Homo sapiens, MCF7); 62.2 µM in experiment [1] (Homo sapiens, L02); 44.1 µM in the experiment with HCT116 (Homo sapiens, HCT-116); over 100 µM in the experiment on BEL7402 (Homo sapiens, Bel-7402); 18.9 µM in the experiment on HepG-2 (Homo sapiens, HepG2). The same compound displayed an IC50 with A549 (Homo sapiens, A549) of 56.7 µM. Also, the inhibition at 100 µM in the experiment with Hela (Homo sapiens) stood at 64.6%; in the experiment with MCF-7 (Homo sapiens, MCF7), 21.7%; in experiment [1] (Homo sapiens, L02) it was 67.1%; in the experiment on HCT116 (Homo sapiens, HCT-116), 76.5%; in the experiment on BEL7402 (Homo sapiens, Bel-7402) it was 23.7%; in the experiment with HepG-2 (Homo sapiens, HepG2), 76%. Also, in the experiment with A549 (Homo sapiens, A549), the inhibition at 100 µM worked out at 63.1%.

The values are drawn from article PMC6225165, “Design and Synthesis of Novel Dehydroepiandrosterone Analogues as Potent Antiproliferative Agents” (Molecules : A Journal of Synthetic Chemistry and Natural …, 2018).
